# In patent US20260250318A1, “COMPOSITIONS AND METHODS FOR CROSSING THE BLOOD BRAIN BARRIER” (VOYAGER THERAPEUTICS, INC., priority 2022, published 2026):
# Test system: brain
# Experiment: Matured TTM-001 and TTM-002 variants, NGS enrichment in mouse brain
# Assay type: in vivo, mice
# Settings: NGS fold-enrichment, mouse brain, relative to AAV9 control
row,Sequence,"Fold Enrichment relative to AAV9, Brain (Mouse) [fold]"
1,KNVVGHDSPHKSGQNQQT,8.077
2,KTIKGNDSPHKSVQNQQT,8.603

# Same assay, conditions: mouse brain; relative to AAV9 control
row,Sequence,"Fold Enrichment relative to AAV9, Brain (Mouse) [fold]"
1,KTINGSGSPHSKAQRDQT,102.317
2,KTVNGSGSPHSKAQSLQT,69.033
3,KTINGSGSPHSKAQVQQI,61.957
4,KTINGSGSPHSKAPGQQT,73.440
5,KTINGSGSSHSKAQNQQT,67.731
6,KTINGSGSPHSKAQVPST,117.223
7,KSEKGSGSPHSKAQNQQT,158.931

# Test system: brains, heart, liver, muscle, and DRG of the NHPs
# Experiment: Maturation of TTM-001 and TTM-002 capsids, NGS enrichment in NHP tissues
# Assay type: in vivo
# Settings: NGS fold-enrichment of RNA, NHP brain, relative to AAV9 control
# Procedure, shortened: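 Variants carry mutations within and flanking the loop IV peptide insert: positions 450–466 were triplet-randomized, while positions 449–466 received low-frequency point mutations. The combined pool went into two NHPs, and each peptide was scored by NGS enrichment ratio against AAV9.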
row,Sequence,"Fold Enrichment relative to AAV9, Brain (NHP) [fold]"
1,KNVVGHDSPHKSGQNQQT,75.330
2,KTIKGNDSPHKSVQNQQT,85.986

# Same assay, conditions: NGS fold-enrichment of matured AAV capsid variants; NHP brain, RNA; relative to AAV9 control
row,Sequence,"Fold Enrichment relative to AAV9, Brain (NHP) [fold]"
1,KTINGSGSPHSKAQRDQT,51.897
2,KTVNGSGSPHSKAQSLQT,55.497
3,KTINGSGSPHSKAQVQQI,57.308
4,KTINGSGSPHSKAPGQQT,54.071
5,KTINGSGSSHSKAQNQQT,54.292
6,KTINGSGSPHSKAQVPST,54.366
7,KSEKGSGSPHSKAQNQQT,58.566

# Same assay, conditions: NGS fold-enrichment, NHP DRG, relative to AAV9 control
row,Sequence,"Fold Enrichment relative to AAV9, DRG (NHP) [fold]"
1,KNVVGHDSPHKSGQNQQT,0.000
2,KTIKGNDSPHKSVQNQQT,0.000

# Same assay, conditions: NGS fold-enrichment, NHP heart, relative to AAV9 control
row,Sequence,"Fold Enrichment relative to AAV9, Heart (NHP) [fold]"
1,KNVVGHDSPHKSGQNQQT,0.024
2,KTIKGNDSPHKSVQNQQT,0.135

# Same assay, conditions: NGS fold-enrichment, NHP liver DNA, relative to AAV9 control
row,Sequence,"Fold Enrichment relative to AAV9, Liver DNA (NHP) [fold]"
1,KNVVGHDSPHKSGQNQQT,0.049
2,KTIKGNDSPHKSVQNQQT,0.000

# Same assay, conditions: NGS fold-enrichment, NHP liver RNA, relative to AAV9 control
row,Sequence,"Fold Enrichment relative to AAV9, Liver RNA (NHP) [fold]"
1,KNVVGHDSPHKSGQNQQT,0.063
2,KTIKGNDSPHKSVQNQQT,0.263

# Same assay, conditions: NGS fold-enrichment, NHP muscle, relative to AAV9 control
row,Sequence,"Fold Enrichment relative to AAV9, Muscle (NHP) [fold]"
1,KNVVGHDSPHKSGQNQQT,0.000
2,KTIKGNDSPHKSVQNQQT,0.000

# Same assay, conditions: NHP DRG; relative to AAV9 control
row,Sequence,"Fold Enrichment relative to AAV9, DRG (NHP) [fold]"
1,KTINGSGSPHSKAQRDQT,0.069
2,KTVNGSGSPHSKAQSLQT,0.000
3,KTINGSGSPHSKAQVQQI,0.000
4,KTINGSGSPHSKAPGQQT,0.065
5,KTINGSGSSHSKAQNQQT,1.709
6,KTINGSGSPHSKAQVPST,0.000
7,KSEKGSGSPHSKAQNQQT,0.000

# Same assay, conditions: NHP heart; relative to AAV9 control
row,Sequence,"Fold Enrichment relative to AAV9, Heart (NHP) [fold]"
1,KTINGSGSPHSKAQRDQT,0.014
2,KTVNGSGSPHSKAQSLQT,0.060
3,KTINGSGSPHSKAQVQQI,1.113
4,KTINGSGSPHSKAPGQQT,0.000
5,KTINGSGSSHSKAQNQQT,1.870
6,KTINGSGSPHSKAQVPST,1.001
7,KSEKGSGSPHSKAQNQQT,0.010

# Same assay, conditions: NHP liver, DNA; relative to AAV9 control
row,Sequence,"Fold Enrichment relative to AAV9, Liver DNA (NHP) [fold]"
1,KTINGSGSPHSKAQRDQT,0.554
2,KTVNGSGSPHSKAQSLQT,0.143
3,KTINGSGSPHSKAQVQQI,0.113
4,KTINGSGSPHSKAPGQQT,0.179
5,KTINGSGSSHSKAQNQQT,0.458
6,KTINGSGSPHSKAQVPST,0.139
7,KSEKGSGSPHSKAQNQQT,0.059

# Same assay, conditions: NHP liver, RNA; relative to AAV9 control
row,Sequence,"Fold Enrichment relative to AAV9, Liver RNA (NHP) [fold]"
1,KTINGSGSPHSKAQRDQT,0.867
2,KTVNGSGSPHSKAQSLQT,0.000
3,KTINGSGSPHSKAQVQQI,0.000
4,KTINGSGSPHSKAPGQQT,0.542
5,KTINGSGSSHSKAQNQQT,1.075
6,KTINGSGSPHSKAQVPST,0.202
7,KSEKGSGSPHSKAQNQQT,1.601

# Same assay, conditions: NHP muscle; relative to AAV9 control
row,Sequence,"Fold Enrichment relative to AAV9, Muscle (NHP) [fold]"
1,KTINGSGSPHSKAQRDQT,0.040
2,KTVNGSGSPHSKAQSLQT,0.000
3,KTINGSGSPHSKAQVQQI,0.000
4,KTINGSGSPHSKAPGQQT,0.004
5,KTINGSGSSHSKAQNQQT,1.287
6,KTINGSGSPHSKAQVPST,0.000
7,KSEKGSGSPHSKAQNQQT,0.011
